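Grown in 96-well plates, cells were treated for 48 hours with each compound at five concentrations. Insufficient inhibition: endpoint recorded as highest concentration tested. GI50: concentration for 50% inhibition of growth.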 Activity calls are given as the source filed them. Rule as the data show it: active = GI50 up to about 1.1 µM and inactive = higher.
How the values were obtained:
Assay in all cases: inhibition of tumour cell growth, NCI panel, 48 h
SK-OV-3 = test system: SK-OV-3
EKVX = test system: EKVX
OVCAR-8 = test system: OVCAR-8
HOP-92 = test system: HOP-92
TK-10 = test system: TK-10
OVCAR-4 = test system: OVCAR-4
UACC-62 = test system: UACC-62
HCC 2998 = test system: HCC 2998
MOLT-4 = test system: MOLT-4
NCI-H23 = test system: NCI-H23
UO-31 = test system: UO-31
SF-295 = test system: SF-295
SK-MEL-2 = test system: SK-MEL-2
LOX IMVI = test system: LOX IMVI
RPMI-8226 = test system: RPMI-8226
IGROV-1 = test system: IGROV-1
HL-60 = test system: HL-60

Measured: GI50

Cc1[nH]c2ccccc2c1C1Cc2ccccc2N1C(=O)/C=C/C=C/c1ccccc1 (stereo not given)
inactive: SK-OV-3 > 100 µM | EKVX > 100 µM | OVCAR-8 > 100 µM | HOP-92 > 100 µM | TK-10 > 100 µM | OVCAR-4 24.3 µM | UACC-62 > 100 µM | HCC 2998 > 100 µM | MOLT-4 12.7 µM | NCI-H23 > 100 µM | UO-31 > 100 µM | SF-295 > 100 µM | SK-MEL-2 > 100 µM | LOX IMVI > 100 µM | RPMI-8226 > 100 µM | IGROV-1 > 100 µM | HL-60 27.5 µM

COc1ccc2c(c1)CC[C@@H]1C2CC[C@]2(C)C(=N\O)/C(=N/O)CC12 (stereo not given in full)
inactive: SK-OV-3 18.4 µM | EKVX 18.7 µM | OVCAR-8 16.5 µM | HOP-92 16.1 µM | TK-10 18.2 µM | UACC-62 13.4 µM | HCC 2998 22.3 µM | MOLT-4 4.79 µM | NCI-H23 10.2 µM | UO-31 12.8 µM | SF-295 10 µM | SK-MEL-2 13.1 µM | LOX IMVI 2.43 µM | RPMI-8226 9.31 µM | IGROV-1 3.64 µM | HL-60 14.2 µM

C/C(=N\NS(=O)(=O)c1ccccc1)c1ccc(Cl)c(Cl)c1
inactive: SK-OV-3 67.3 µM | EKVX 67.3 µM | OVCAR-8 40.6 µM | HOP-92 67 µM | TK-10 50.1 µM | OVCAR-4 58.9 µM | UACC-62 95.5 µM | HCC 2998 71.1 µM | MOLT-4 47.8 µM | NCI-H23 75.3 µM | UO-31 45.4 µM | SF-295 46.3 µM | SK-MEL-2 > 100 µM | LOX IMVI 78.9 µM | RPMI-8226 67.5 µM | IGROV-1 72.9 µM | HL-60 97.3 µM

COC1CC(n2cnc3c(N)ncnc32)OC1CO (stereo not given)
inactive: OVCAR-8 > 100 µM | HOP-92 > 100 µM | TK-10 > 100 µM | OVCAR-4 > 100 µM | UACC-62 > 100 µM | HCC 2998 > 100 µM | MOLT-4 > 100 µM | NCI-H23 81.5 µM | UO-31 > 100 µM | SF-295 > 100 µM | SK-MEL-2 > 100 µM | RPMI-8226 > 100 µM | IGROV-1 > 100 µM | HL-60 > 100 µM

COc1ccc2cc3nc(O)cc(O)c3cc2c1OC
inactive: EKVX > 100 µM | OVCAR-8 > 100 µM | HOP-92 > 100 µM | TK-10 > 100 µM | OVCAR-4 > 100 µM | UACC-62 > 100 µM | HCC 2998 > 100 µM | MOLT-4 > 100 µM | NCI-H23 > 100 µM | UO-31 > 100 µM | SF-295 > 100 µM | SK-MEL-2 > 100 µM | LOX IMVI > 100 µM | RPMI-8226 > 100 µM | IGROV-1 > 100 µM | HL-60 > 100 µM

COc1ccc(C2=NNC(=O)OC2c2ccccc2)cc1 (stereo not given)
inactive: EKVX 76 µM | OVCAR-8 > 100 µM | HOP-92 43.6 µM | TK-10 > 100 µM | OVCAR-4 > 100 µM | UACC-62 59.2 µM | HCC 2998 34.1 µM | MOLT-4 43.8 µM | NCI-H23 53.5 µM | UO-31 > 100 µM | SF-295 22.4 µM | SK-MEL-2 36.1 µM | LOX IMVI 55 µM | RPMI-8226 > 100 µM | IGROV-1 > 100 µM | HL-60 67.5 µM

CCOC(=O)c1cn2c([nH]c3ccccc32)c(C#N)c1=O
inactive: SK-OV-3 > 100 µM | EKVX > 100 µM | OVCAR-8 > 100 µM | HOP-92 > 100 µM | TK-10 > 100 µM | OVCAR-4 > 100 µM | UACC-62 > 100 µM | HCC 2998 > 100 µM | MOLT-4 > 100 µM | NCI-H23 > 100 µM | UO-31 98.2 µM | SF-295 > 100 µM | SK-MEL-2 > 100 µM | LOX IMVI 25.7 µM | IGROV-1 > 100 µM | HL-60 25.8 µM

Clc1ccccc1C1=NN(c2ccccc2)C2c3cc(Br)ccc3OCC12 (stereo not given)
inactive: SK-OV-3 > 100 µM | EKVX 89.9 µM | OVCAR-8 > 100 µM | HOP-92 > 100 µM | TK-10 > 100 µM | HCC 2998 > 100 µM | MOLT-4 96.4 µM | NCI-H23 > 100 µM | UO-31 > 100 µM | SF-295 > 100 µM | SK-MEL-2 > 100 µM | LOX IMVI > 10 µM | RPMI-8226 67.9 µM | IGROV-1 > 100 µM | HL-60 > 100 µM

O=C(CC(=O)C1CCOC1=O)C(=O)Nc1ccc(Cl)cc1 (stereo not given)
inactive: SK-OV-3 > 100 µM | EKVX > 100 µM | OVCAR-8 > 100 µM | HOP-92 > 100 µM | TK-10 > 100 µM | OVCAR-4 > 100 µM | UACC-62 > 100 µM | HCC 2998 > 100 µM | NCI-H23 > 100 µM | UO-31 > 100 µM | SF-295 > 100 µM | SK-MEL-2 > 100 µM | LOX IMVI > 100 µM | RPMI-8226 > 100 µM | IGROV-1 > 100 µM | HL-60 > 100 µM

O=C(O)c1ccc(O)c(/N=N/c2cc(S(=O)(=O)O)c3ccccc3c2O)c1
inactive: SK-OV-3 > 10 µM | EKVX 23.3 µM | OVCAR-8 > 100 µM | HOP-92 > 100 µM | TK-10 > 100 µM | OVCAR-4 > 100 µM | HCC 2998 > 100 µM | MOLT-4 > 100 µM | NCI-H23 > 100 µM | UO-31 > 100 µM | SF-295 > 10 µM | SK-MEL-2 > 10 µM | LOX IMVI > 100 µM | RPMI-8226 > 100 µM | IGROV-1 45.1 µM | HL-60 > 100 µM

C/C(CC(=O)Nc1ccc(C)c(C)c1)=N\NC(N)=S
inactive: SK-OV-3 > 100 µM | EKVX > 100 µM | OVCAR-8 > 100 µM | HOP-92 > 100 µM | TK-10 > 100 µM | UACC-62 > 100 µM | HCC 2998 > 100 µM | MOLT-4 > 100 µM | NCI-H23 > 100 µM | UO-31 > 100 µM | SF-295 > 100 µM | SK-MEL-2 > 100 µM | LOX IMVI > 100 µM | RPMI-8226 > 100 µM | IGROV-1 > 100 µM | HL-60 > 100 µM

Fc1ccc2c(c1)SC1Oc3ccccc3-c3c1c-2nn3-c1ccccc1 (stereo not given)
inactive: SK-OV-3 > 100 µM | EKVX > 100 µM | OVCAR-8 > 100 µM | HOP-92 > 100 µM | TK-10 > 100 µM | HCC 2998 > 100 µM | MOLT-4 > 100 µM | NCI-H23 > 100 µM | UO-31 > 100 µM | SF-295 > 100 µM | SK-MEL-2 > 100 µM | LOX IMVI > 100 µM | RPMI-8226 > 100 µM | IGROV-1 > 100 µM | HL-60 > 100 µM
